Values of other authors as cited in US20220387447A1, “FORMULATIONS OF TESTOSTERONE AND METHODS OF TREATMENT THEREWITH” (BOARD OF REGENTS, THE UNIVERSITY OF TEXAS SYSTEM, priority 2016, published 2022).

Experiments:
[1] = system: women; conditions: single-dose administration, sublingually
[2] = intranasal administration; baseline mean 2.5 pmol/L

## CC12CCC(=O)C=C1CCC1C2CCC2(C)C(O)CCC12 (centres unmarked) [testosterone, Testosterone]
[1]
  subjective sexual desire, genital responsiveness, and genital arousal: increase
[2]
  maximum testosterone concentration (mean): 168.2 pmol/L
